Measured values from patent US20090105207A1, “Copper (1) Complex” (priority 2006, published 2009).

Key:
rats [1] = test: Bioavailability studies on rats (liver and kidney functions, blood picture, lipid profile); format: in vivo; settings: for Lipid profile: all groups
Description: The study on rats included five groups, group 1 control, 2 receiving cu, group.2 pyrazinic, group 3 complex with large dose, & group 5 receiving complex with small dose.

fatigue = test: Clinical trials for treatment of fatigue in humans; format: in vivo
rats [2] = test: Toxicity of the complex (LD50, mortality within 24 hrs); format: in vivo
Description: Seventy two rats (250+/−2.0 g b.wt) were randomly located into 12 groups of 6 rats each
Mortality in each group were recorded within 24 hrs. The LD50 was calculated according to Behecens and Karbere (1970)

[3] = system: male infertility (sperm count, motility); test: Male infertility study, 20 patients; format: in vivo, human
[4] = Stability of the solid complex; format: physicochemical
[5] = system: muscle weakness (muscle dystrophies, post stroke weakness); test: Clinical trials for treatment of weakness of muscles; format: in vivo, human
Description: The complex used in treatment of muscle weakness for different underlying causes (muscle dystrophies post stroke weakness). […] When the patient reaches the optimum dose, onset of improvement in muscle power is observed within hours of drug intake.

dilated Cardiomyopathy = test: Clinical trials in cardiomyopathy; format: in vivo, human; settings: clinically and in ECHO cardiographic measurements
Description: Improvement is shown both clinically and in the ECHO cardiographic measurements.

[6] = Solubility of the complex in solvents; format: physicochemical
Description: Solubility: the complex is insoluble in non polar solvents, e.g. benzene, carbon tetrachloride, etc., and insoluble in polar solvents: water, methanol, ethanol, acetone, but soluble in these solvents upon heating in inert atmosphere, to prevent oxidation.

[7] = system: stem cells, CD4 and CD8 cells; test: In vivo stem cell, CD4 and CD8 counts before and during medication; settings: before and at regular intervals of medication
Description: We hypothesized that the drug may have a role in stimulating the stem cells present in the various organs to differentiate. […] In vivo we measured the stem cell count together with CD8 and CD4 cells before, and at regular intervals of medication.

[8] = complex at large and small dose

In the case of `O=C(O)c1cnccn1` [pyrazinic, pyrazinic acid, reference compound], the Lipid profile (rats [1]) is reported as “didn't show significant difference” and the “Liver and kidney functions versus control group” value (rats [1]; [8]) is reported as “no significant difference”.
For “[CuCI (pyrazinic acid) 2]. 2H2O [complex]”, the “Agonizing fatigue in Parkinsonism, myositis, disseminated sclerosis” value (fatigue) was “improves markedly”, the “Effect in all types of fatigue” value (fatigue) was “relieved the muscle pain, increased the physical activity and productivity” and the Lipid profile (rats [1]) was “didn't show significant difference”. The “Liver and kidney functions versus control group” value (rats [1]; [8]) was “no significant difference”, the “Lymphocytic count (complete blood picture)” value (rats [1]; complex at large and small dose, not exceeding the normal range) was “increase of lymphocytic count” and the “LD50 (intrapperitoneally)” value (rats [2]; intraperitoneal) was 128 mg/kg. The “LD50 (oral)” value (rats [2]; oral) was 1104.17 mg/kg, the Sperm motility ([3]; all cases) was “significant improvement” and the “Healthy babies, azospermic patients” value ([3]; among the seven responding azospermic patients) was “two of them got healthy babies”. The “Healthy babies, oligospermia” value ([3]; oligospermia cases) was “four cases got also healthy babies”, the “Sperm count in azospermic patients” value ([3]; seven out of nine patients, within 6 weeks of treatment) was 1.5-3 millions/hpf and the “Sperm count in oligospermia” value ([3]; within 1 month of treatment) was “doubling of the count”. The Stability [4] was “sufficiently stable when well-dried”, the “Clinical improvement in DMS patients” value ([5]; affected by age, weight and degree of dystrophy) was “dose dependant” and the “Onset of improvement in muscle power” value ([5]; at optimum dose, after drug intake) was “within hours”. For the same molecule, the “Cases improved, dilated cardiomyopathy due to other causes” value (dilated Cardiomyopathy) was 80%, the “Improvement of dilated cardiomyopathy secondary to Duchenne muscle dystrophy” value (dilated Cardiomyopathy) was “improved all cases” and the “Solubility in non polar solvents” value ([6]; e.g. benzene, carbon tetrachloride) was “insoluble”. For the same molecule, the “Solubility in polar solvents” value ([6]; water, methanol, ethanol, acetone) was “insoluble”, the “Solubility in polar solvents upon heating” value ([6]; water, methanol, ethanol, acetone, heating in inert atmosphere) was “soluble” and the CD4/CD8 [7] was “no disturbance”. The “CD4 and CD8 number” value [7] was “increase” and the Stem cell count [7] was “significant decrease”.
